Earlier results on 2 compounds are cited in US20230381356A1 (priority 2021, published 2023).

For data set [1], the system named is SARS-CoV-2. Conditions: GITC alone, even in high concentrations.
For data set [2], the system named is Pixuna virus. The note with it: GITC alone at or near saturation (~3.5M).
Data set [3] has as its system Ebola Virus. Conditions: saturated GITC solution ~3.5M alone.
Data set [4] has as its system Bovine Viral Diarrheal Virus.
For data set [5], the system named is Xenotropic murine leukemia virus.
The test system of data set [6] is Pseudorabies Virus.
For data set [7], the system named is HIV.
In data set [8] the test system is Virus. Conditions: in <1 minute, final concentration of 1% (v/v).

For the compound `N#CS.N=C(N)N` [GITC, Guanidine isothiocyanate], the “inactivation of SARS-CoV-2” value in data set [1] is on record as 50-75%. The “inactivation of Pixuna virus” value in data set [2] is “did not effectively inactivate”. The “inactivation of Ebola Virus” value in data set [3] is listed as “does not inactivate”.

On to Triton X-100, for which, in data set [4], the “inactivation of Bovine Viral Diarrheal Virus” value is “inactivate”. In data set [5], the “inactivation of Xenotropic murine leukemia virus” value is given as “inactivate”. In addition, the “inactivation of Pseudorabies Virus” value in data set [6] is “inactivate”. Moreover, in data set [7], the “inactivation of HIV” value is given as “inactivate”. In data set [8], the log reduction is 4 log.
